From patent US20220402916A1, “SMALL MOLECULE INHIBITORS OF KRAS G12C MUTANT” (Merck Sharp & Dohme Corp., priority 2019, published 2022)

molecular target: T1, Biotinylated KRAS G12C protein (Homo sapiens, UniProt P01116, C118S/C51S/C80L/G12C); assay: SOS-catalyzed nucleotide exchange assay; type: biochemical; details: 10,000 nM; 60 minutes of preincubation prior to addition of SOS
T1 construct: 183 amino acids; biotin on K10
Protocol: Compounds are added to this complex, and then after 60 minute incubation time the mixture is treated with recombinant SOS protein and unlabeled GTP. Small molecule inhibitors stabilize the Bodipy-GDP complex whereas the untreated protein rapidly exchanges Bodipy-GDP for unlabeled GTP resulting in reduced TR-FRET signal. […] This mixture is then further diluted to 90 nM in an assay buffer (20 mM HEPES, 150 mM sodium chloride, 10 mM magnesium chloride, and 0.005% Tween) containing 15 nM of Terbium-Streptavidin (Invitrogen, catalog #PV3577) and 900 nM of Bodipy-GDP and incubated at room temperature for six hours. […] Each test compound (10 mM stock in DMSO) is diluted in DMSO to make a 10-point, 3-fold dilution series in a 384-well low dead volume microplate (Labcyte, catalog #LP-0200). Once titrations are made, 10 nL of the diluted compounds is acoustically dispensed into a 384-well assay plate (Corning, catalog #3820) using an Echo 550 (Labcyte). […] Each well then receives 3 μL of 240 nM recombinant human SOS protein and 9 mM GTP (Sigma, G8877) in assay buffer and is incubated at room temperature for 60 minutes. The time-resolved fluorescence resonance energy transfer signal for the assay plate is measured on an Envision (PerkinElmer) plate reader: Excitation filter=340 nm; emission1=495 nm; emission2=520 nm; dichroic mirror=D400/D505; delay time=100 μs. The signal of each well is determined as the ratio of the emission at 520 nm to that at 495 nm. […] The apparent effect as a function of compound concentration is fit to a four parameter logistic equation.

T1 sequence (P01116 with tags, fused parts or gaps isoform P01116-2 G12C/C51S/C80L/C118S): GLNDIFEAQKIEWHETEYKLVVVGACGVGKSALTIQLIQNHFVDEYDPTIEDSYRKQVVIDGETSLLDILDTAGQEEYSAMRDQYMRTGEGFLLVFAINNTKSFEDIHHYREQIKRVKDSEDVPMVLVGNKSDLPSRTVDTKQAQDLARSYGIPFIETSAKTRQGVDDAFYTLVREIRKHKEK

inhibition at 10 µM | SMILES
33% | C=CC(=O)N1CCN(c2cc(C(=O)N(C)CCN(C)C)nc3c2CCN(c2cccc4cccc(C)c24)C3)CC1 [Compound 15, 4-(4-acryloylpiperazin-1-yl)-N-(2-(dimethylamino)ethyl)-N-methyl-7-(8-methylnaphthalen-1-yl)-5,6,7,8-tetrahydro-1,7-naphthyridine-2-carboxamide]
31% | C=CC(=O)N1CCN(c2cc(C(=O)NCC3CN(C)CCO3)nc3c2CCN(c2cccc4cccc(C)c24)C3)CC1 (racemic) [Compound 55, rac-4-(4-acryloylpiperazin-1-yl)-N-((4-methylmorpholin-2-yl)methyl)-7-(8-methylnaphthalen-1-yl)-5,6,7,8-tetrahydro-1,7-naphthyridine-2-carboxamide]
33% | C=CC(=O)N1CCN(c2cc(C(=O)NCCN3CCOCC3)nc3c2CCN(c2cccc4ccccc24)C3)CC1 [Compound 9, 4-(4-acryloylpiperazin-1-yl)-N-(2-morpholinoethyl)-7-(naphthalen-1-yl)-5,6,7,8-tetrahydro-1,7-naphthyridine-2-carboxamide]
37% | C=CC(=O)N1CCN(c2cc(C(=O)NCC(C)(C)CN(C)C)nc3c2CCN(c2cccc4cccc(C)c24)C3)CC1 [Compound 22, 4-(4-acryloylpiperazin-1-yl)-N-(3-(dimethylamino)-2,2-dimethylpropyl)-7-(8-methylnaphthalen-1-yl)-5,6,7,8-tetrahydro-1,7-naphthyridine-2-carboxamide]
29% | C=CC(=O)N1CCN(c2cc(C(=O)N[C@@H]3COC[C@@H]3N3CCOCC3)nc3c2CCN(c2cccc4cccc(C)c24)C3)CC1 (racemic) [Compound 27, rac-4-(4-acryloylpiperazin-1-yl)-7-(8-methylnaphthalen-1-yl)-N-(cis-4-morpholinotetrahydrofuran-3-yl)-5,6,7,8-tetrahydro-1,7-naphthyridine-2-carboxamide]
36% | C=CC(=O)N1CCN(c2cc(C(=O)N(C)C3CCN(C)C3)nc3c2CCN(c2cccc4cccc(C)c24)C3)CC1 (racemic) [Compound 51, rac-4-(4-acryloylpiperazin-1-yl)-N-methyl-7-(8-methylnaphthalen-1-yl)-N-(1-methylpyrrolidin-3-yl)-5,6,7,8-tetrahydro-1,7-naphthyridine-2-carboxamide]
30% | C=CC(=O)N1CCN(c2cc(C(=O)NC(CC(C)C)CN(C)C)nc3c2CCN(c2cccc4cccc(C)c24)C3)CC1 (racemic) [Compound 20, rac-4-(4-acryloylpiperazin-1-yl)-N-(1-(dimethylamino)-4-methylpentan-2-yl)-7-(8-methylnaphthalen-1-yl)-5,6,7,8-tetrahydro-1,7-naphthyridine-2-carboxamide]
16% | C=CC(=O)N1CCN(c2cc(C(=O)NC(C)(C)CN(C)C)nc3c2CCN(c2cccc4cccc(C)c24)C3)CC1 [Compound 17, 4-(4-acryloylpiperazin-1-yl)-N-(1-(dimethylamino)-2-methylpropan-2-yl)-7-(8-methylnaphthalen-1-yl)-5,6,7,8-tetrahydro-1,7-naphthyridine-2-carboxamide]

same assay, conditions: apparent potency; preincubation time of 60 minutes prior to addition of SOS

IC50 | SMILES
1590 nM | C=CC(=O)N1CCN(c2cc(C(=O)N[C@@H]3CCC[C@H]3N(C)C)nc3c2CCN(c2cccc4ccccc24)C3)CC1 (racemic) [Compound 7, rac-4-(4-acryloylpiperazin-1-yl)-N-(trans-2-(dimethylamino)cyclo-pentyl)-7-(naphthalen-1-yl)-5,6,7,8-tetrahydro-1,7-naphthyridine-2-carboxamide]
1490 nM | C=CC(=O)N1CCN(c2cc(C(=O)N[C@H](C)CN3CCOCC3)nc3c2CCN(c2cccc4cccc(C)c24)C3)CC1 [Compound 24, (R)-4-(4-acryloylpiperazin-1-yl)-7-(8-methylnaphthalen-1-yl)-N-(1-morpholinopropan-2-yl)-5,6,7,8-tetrahydro-1,7-naphthyridine-2-carboxamide]
3570 nM | C=CC(=O)N1CCN(c2cc(C(=O)N[C@@H]3CCN(C)C3)nc3c2CCN(c2cccc4cccc(C)c24)C3)CC1 [Compound 50, (R)-4-(4-acryloylpiperazin-1-yl)-7-(8-methylnaphthalen-1-yl)-N-(1-methylpyrrolidin-3-yl)-5,6,7,8-tetrahydro-1,7-naphthyridine-2-carboxamide]
1690 nM | C=CC(=O)N1CCN(c2cc(C(=O)NC(C)CN(C)C)nc3c2CCN(c2cccc4ccccc24)C3)CC1 (racemic) [Compound 6, rac-4-(4-acryloylpiperazin-1-yl)-N-(1-(dimethylamino)propan-2-yl)-7-(naphthalen-1-yl)-5,6,7,8-tetrahydro-1,7-naphthyridine-2-carboxamide]
4470 nM | C=CC(=O)N1CCN(c2cc(C(=O)N[C@H]3COC[C@@H]3N(C)C)nc3c2CCN(c2cccc4cccc(C)c24)C3)CC1 (racemic) [Compound 32, rac-4-(4-acryloylpiperazin-1-yl)-N-(trans-4-(dimethylamino)tetrahydro-furan-3-yl)-7-(8-methylnaphthalen-1-yl)-5,6,7,8-tetrahydro-1,7-naphthyridine-2-carboxamide]
962 nM | C=CC(=O)N1CCN(c2cc(C(=O)NC(CO)CN(C)C)nc3c2CCN(c2cccc4cccc(C)c24)C3)CC1 (racemic) [Compound 16, rac-4-(4-acryloylpiperazin-1-yl)-N-(1-(dimethylamino)-3-hydroxypropan-2-yl)-7-(8-methylnaphthalen-1-yl)-5,6,7,8-tetrahydro-1,7-naphthyridine-2-carboxamide]
2480 nM | C=CC(=O)N1CCN(c2cc(C(=O)NCC3CCN(C)C3)nc3c2CCN(c2cccc4cccc(C)c24)C3)CC1 (racemic) [Compound 58, rac-4-(4-acryloylpiperazin-1-yl)-7-(8-methylnaphthalen-1-yl)-N-((1-methylpyrrolidin-3-yl)methyl)-5,6,7,8-tetrahydro-1,7-naphthyridine-2-carboxamide]
8880 nM | C=CC(=O)N1CCN(c2cc(C(=O)N3CCCCC3CN3CCCC3)nc3c2CCN(c2cccc4cccc(C)c24)C3)CC1 (racemic) [Compound 46, rac-1-(4-(7-(8-methylnaphthalen-1-yl)-2-(2-(pyrrolidin-1-ylmethyl)piperidine-1-carbonyl)-5,6,7,8-tetrahydro-1,7-naphthyridin-4-yl)piperazin-1-yl)prop-2-en-1-one]
3740 nM | C=CC(=O)N1CCN(c2cc(C(=O)NC(C)CN(CC)CC)nc3c2CCN(c2cccc4cccc(C)c24)C3)CC1 (racemic) [Compound 19, rac-4-(4-acryloylpiperazin-1-yl)-N-(1-(diethylamino)propan-2-yl)-7-(8-methylnaphthalen-1-yl)-5,6,7,8-tetrahydro-1,7-naphthyridine-2-carboxamide]
793 nM | C=CC(=O)N1CCN(c2cc(C(=O)N[C@@H]3[C@H](N)CCCC3(F)F)nc3c2CCN(c2cccc4cccc(C)c24)C3)C[C@@H]1CC#N [Compound 95, 4-((S)-4-acryloyl-3-(cyanomethyl)piperazin-1-yl)-N-((1R,6R)-6-amino-2,2-difluorocyclohexyl)-7-(8-methylnaphthalen-1-yl)-5,6,7,8-tetrahydro-1,7-naphthyridine-2-carboxamide]
3150 nM | C=CC(=O)N1CCN(c2cc(C(=O)NCCN(C)C)nc3c2CCN(c2cccc4ccccc24)C3)CC1 [Compound 2, 4-(4-acryloylpiperazin-1-yl)-N-(2-(dimethylamino)ethyl)-7-(naphthalen-1-yl)-5,6,7,8-tetrahydro-1,7-naphthyridine-2-carboxamide]
187 nM | C=CC(=O)N1CCN(c2cc(C(=O)NC3(CN(CC)CC)CC3)nc3c2CCN(c2cccc4cccc(C)c24)C3)CC1 [Compound 26, 4-(4-acryloylpiperazin-1-yl)-N-(1-((diethylamino)methyl)cyclopropyl)-7-(8-methylnaphthalen-1-yl)-5,6,7,8-tetrahydro-1,7-naphthyridine-2-carboxamide]
3770 nM | C=CC(=O)N1CCN(c2cc(C(=O)N3CCC[C@@H]3CN3CCCC3)nc3c2CCN(c2cccc4cccc(C)c24)C3)CC1 [Compound 42, (R)-1-(4-(7-(8-methylnaphthalen-1-yl)-2-(2-(pyrrolidin-1-ylmethyl)pyrrolidine-1-carbonyl)-5,6,7,8-tetrahydro-1,7-naphthyridin-4-yl)piperazin-1-yl)prop-2-en-1-one]
468 nM | C=CC(=O)N1CCN(c2cc(C(=O)N[C@H]3CC[C@@H]3N)nc3c2CCN(c2cccc4cccc(C)c24)C3)CC1 (racemic) [Compound 37, rac-4-(4-acryloylpiperazin-1-yl)-N-(trans-2-aminocyclobutyl)-7-(8-methylnaphthalen-1-yl)-5,6,7,8-tetrahydro-1,7-naphthyridine-2-carboxamide]
426 nM | C=CC(=O)N1CCN(c2cc(C(=O)N[C@@H]3CCCC[C@H]3N)nc3c2CCN(c2cccc4cccc(C)c24)C3)CC1 [Compound 31, 4-(4-acryloylpiperazin-1-yl)-N-((1R,2R)-2-aminocyclohexyl)-7-(8-methylnaphthalen-1-yl)-5,6,7,8-tetrahydro-1,7-naphthyridine-2-carboxamide]
